Where two headings read alike, the source gives them in different places.
Key:
[1] = biological target: T1, IKZF1 ZNF2_ZNF3 Q1F degron-tagged CD19 CAR (Homo sapiens, UniProt Q13422, Q146F); assay: Degradation of Q1F degron-tagged CD19 CAR in Jurkat cells (flow cytometry of CAR levels); format: cell-based
T1 construct: ZNF2_ZNF3 Q1F degron (GERPFFCNQCGASFTQKGNLLRHIKLHSGEKPFKCHLCNYACRRRDALTGHLRTHS); fused on or other part: anti-CD19 scFv, CD28 transmembrane domain, 4-1BB costimulatory domain, CD3 zeta signaling domain (the CAR that carries the degron), and Nluc
T1 sequence (Q13422 whole entry Q146F, the tested form may be a part): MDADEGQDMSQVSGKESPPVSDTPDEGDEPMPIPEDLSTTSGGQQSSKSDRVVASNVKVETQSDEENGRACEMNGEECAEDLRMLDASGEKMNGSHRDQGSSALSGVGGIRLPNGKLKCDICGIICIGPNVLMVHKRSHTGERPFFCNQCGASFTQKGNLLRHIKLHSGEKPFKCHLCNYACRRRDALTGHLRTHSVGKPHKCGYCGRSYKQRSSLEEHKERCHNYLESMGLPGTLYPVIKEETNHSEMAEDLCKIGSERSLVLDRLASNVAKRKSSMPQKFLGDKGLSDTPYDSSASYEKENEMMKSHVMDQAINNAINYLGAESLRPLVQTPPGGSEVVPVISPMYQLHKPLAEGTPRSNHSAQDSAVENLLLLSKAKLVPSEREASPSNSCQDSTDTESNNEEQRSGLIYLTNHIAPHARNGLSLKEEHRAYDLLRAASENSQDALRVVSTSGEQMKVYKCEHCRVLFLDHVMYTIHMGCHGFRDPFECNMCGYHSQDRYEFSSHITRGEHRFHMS
Excerpt: Q1F degron-targeting compounds were screened in Jurkat cells engineered to express a IKZF1 ZNF2_ZNF3 Q1F. The cell line was generated with lentiviral vectors containing CD19 CARs tagged with IKZF1 ZNF2_ZNF3 QIF Nluc, which were transduced into Jurkat cells. The CD19 CAR comprised an anti-CD19 scFv, a CD28 transmembrane domain, a 4-1BB costimulatory domain, a CD3ζ signaling domain, and a ZNF2_ZNF3 Q1F degron (GERPFFCNQCGASFTQKGNLLRHIKLHSGEKPFKCHLCNYACRRRDALTGHLRTHS; SEQ ID NO: 1; Q1F substitution underlined). Transduced cells were treated with a titration of each small molecule or no drug and then incubated at 37° C. for 18 hours. Cells were washed and stained with appropriate staining reagent to measure CAR levels. The cells were incubated at 4° C. in the staining reagents for 20 mins and then washed 3 times before being read on the flow cytometer. CAR levels were normalized to cells that had not been treated with drug. EC50 and Ymin values were calculated using the resulting titration curve. This identified small molecules that potently degraded the Q1F degron-tagged CARs (Table 1).
(§1) To determine the EC50 value of a compound for the degradation of a given substrate (concentration of compound that achieves half the maximum degradation observed), a four-parameter logistic model (sigmoidal dose-response model) (FIT=(A+{(B−A)/1+[(C/x)D]})) where C is the inflection point (EC50), D is the […], and A and B are the low and high limits of the fit, respectively) was used. All substrate degradation curves were processed and evaluated using ActivityBase (IDBS), a data analysis software package. Ymax is the % protein degraded (Ymin=100−Ymax and is minimum percent protein remaining).

Helios = biological target: T2, Helios (Homo sapiens, UniProt Q9UKS7); assay: Helios degradation in Jurkat/Helios/HiBit cells (Nano-Glo luminescence); format: cell-based; details: 18 hr, read-out: Helios Jurkat Hibit IC50
T2 construct: endogenous in cells; host or cells: Jurkat cells, CRISPR/Cas9 knock-in of HiBit at the IKZF2 locus
T2 sequence (Q9UKS7 whole entry): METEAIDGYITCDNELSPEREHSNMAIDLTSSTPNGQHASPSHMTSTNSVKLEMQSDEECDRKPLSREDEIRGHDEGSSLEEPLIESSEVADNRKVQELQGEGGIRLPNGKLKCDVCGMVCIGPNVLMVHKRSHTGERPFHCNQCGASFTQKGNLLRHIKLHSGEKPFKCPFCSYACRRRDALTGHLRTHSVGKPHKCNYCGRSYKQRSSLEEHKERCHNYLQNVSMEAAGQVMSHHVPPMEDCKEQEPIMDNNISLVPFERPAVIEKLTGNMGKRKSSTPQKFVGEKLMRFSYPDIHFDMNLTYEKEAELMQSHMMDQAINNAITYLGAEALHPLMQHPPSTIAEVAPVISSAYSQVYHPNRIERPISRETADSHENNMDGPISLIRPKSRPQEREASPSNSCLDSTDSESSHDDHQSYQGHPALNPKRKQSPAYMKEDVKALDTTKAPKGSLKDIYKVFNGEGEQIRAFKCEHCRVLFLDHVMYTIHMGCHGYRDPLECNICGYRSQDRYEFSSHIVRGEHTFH
T2 sequence (Q96SW2 whole entry, further chain): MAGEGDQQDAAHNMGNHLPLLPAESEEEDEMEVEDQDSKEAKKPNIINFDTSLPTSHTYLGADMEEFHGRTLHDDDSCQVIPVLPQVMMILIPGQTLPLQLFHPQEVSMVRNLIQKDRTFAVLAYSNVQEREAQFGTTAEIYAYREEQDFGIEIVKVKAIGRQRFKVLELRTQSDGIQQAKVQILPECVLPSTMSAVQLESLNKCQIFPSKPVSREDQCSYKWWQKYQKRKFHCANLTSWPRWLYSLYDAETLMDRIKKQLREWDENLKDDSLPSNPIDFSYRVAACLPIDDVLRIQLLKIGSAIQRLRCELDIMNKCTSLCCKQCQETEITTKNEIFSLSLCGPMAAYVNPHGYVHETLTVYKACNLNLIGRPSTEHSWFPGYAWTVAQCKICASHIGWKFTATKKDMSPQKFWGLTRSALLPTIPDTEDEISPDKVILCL
T2 sequence (Q16531 whole entry partner): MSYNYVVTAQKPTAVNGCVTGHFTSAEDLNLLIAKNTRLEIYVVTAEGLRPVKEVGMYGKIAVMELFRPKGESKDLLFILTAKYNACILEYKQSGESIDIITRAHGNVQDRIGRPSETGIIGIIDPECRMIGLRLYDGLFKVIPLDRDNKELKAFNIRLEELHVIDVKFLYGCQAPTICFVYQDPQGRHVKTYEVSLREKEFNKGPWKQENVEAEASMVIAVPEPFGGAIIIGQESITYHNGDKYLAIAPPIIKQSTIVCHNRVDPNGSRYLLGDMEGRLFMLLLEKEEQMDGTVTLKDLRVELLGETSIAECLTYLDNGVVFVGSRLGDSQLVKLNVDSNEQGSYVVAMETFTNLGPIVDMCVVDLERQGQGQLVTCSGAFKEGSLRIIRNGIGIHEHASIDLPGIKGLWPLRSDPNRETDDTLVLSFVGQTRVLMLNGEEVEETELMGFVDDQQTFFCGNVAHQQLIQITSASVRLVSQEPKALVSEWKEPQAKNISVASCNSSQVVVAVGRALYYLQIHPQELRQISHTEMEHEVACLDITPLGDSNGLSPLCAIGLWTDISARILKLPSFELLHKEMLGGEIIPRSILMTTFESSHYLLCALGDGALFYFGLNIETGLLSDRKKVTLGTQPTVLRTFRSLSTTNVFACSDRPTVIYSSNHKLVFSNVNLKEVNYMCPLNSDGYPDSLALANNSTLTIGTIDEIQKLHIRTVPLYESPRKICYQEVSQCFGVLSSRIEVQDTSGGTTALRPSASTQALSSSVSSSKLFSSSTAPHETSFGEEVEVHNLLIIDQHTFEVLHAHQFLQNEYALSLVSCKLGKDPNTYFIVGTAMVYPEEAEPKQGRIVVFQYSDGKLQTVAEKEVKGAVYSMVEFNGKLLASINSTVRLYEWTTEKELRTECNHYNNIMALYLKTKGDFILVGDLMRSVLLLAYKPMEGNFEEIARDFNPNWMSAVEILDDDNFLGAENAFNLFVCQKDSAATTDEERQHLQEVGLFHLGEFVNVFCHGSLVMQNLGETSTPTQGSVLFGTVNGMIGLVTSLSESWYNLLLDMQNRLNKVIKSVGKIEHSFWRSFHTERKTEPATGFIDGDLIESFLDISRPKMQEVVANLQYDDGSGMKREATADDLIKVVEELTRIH
Method: For Helios, a stable Jurkat cell line was engineered using CRISPR/Cas9 to insert an in-frame HiBit tag into the carboxy-terminal reading frame of the IKZF2 gene. The sequence of human Helios is shown below:
Test compounds were transferred to 1536 well plates using an acoustic dispenser, and Jurkat/Helios/HiBit cells in DMEM/10% FCS were plated at 10,000 cells/well in a final volume of 5 μL. Cells were incubated at 37 C, 95% RH for 18 hr. Luciferase activity was measured by adding 2 μL/well of Nano-Glo reagent (Promega), incubating at RT for 30 min, and reading luminescence on a microtiter plate reader.
as §1

[2] = Jurkat cells expressing CD19 CAR tagged with IKZF1 ZNF2_ZNF3 Q1F; 18 hours at 37° C.; CAR levels normalized to untreated cells; read-out: Q1F Jurkat IC50
[3] = Ymax is the % protein degraded; Jurkat cells expressing Q1F degron-tagged CD19 CAR; 18 hours; read-out: Q1F Jurkat-YMax
[4] = Jurkat, 18 h, read-out: Q1F Jurkat-YMax

SMILES	DC50 [1, 2]	Dmax [1, 3]	DC50 (Helios)	Dmax [1, 4]	DC50 ([1]; read-out: Q1F Jurkat IC50; Jurkat cells expressing CD19 CAR tagged with IKZF1 ZNF2_ZNF3 Q1F; 18 hours at 37° C.; CAR levels normalized to untreated cells)
O=C1CCC(N2Cc3c(cc(F)c(C4CCN(CC5CCOC5)CC4)c3F)C2=O)C(=O)N1 (centres unmarked) [Compound 7, 3-(4,6-difluoro-1-oxo-5-(1-((tetrahydrofuran-3-yl)methyl)piperidin-4-yl)isoindolin-2-yl)piperidine-2,6-dione]	0.265 nM	86.2%	≥ 10000 nM	–	–
N#Cc1ccc2c(c1)CN(C(=O)c1c(F)cc3c(c1F)CN(C1CCC(=O)NC1=O)C3=O)CC2 (centres unmarked) [Compound 70, 2-[2-(2,6-dioxo-3-piperidyl)-4,6-difluoro-1-oxo-isoindoline-5-carbonyl]-3,4-dihydro-1H-isoquinoline-7-carbonitrile]	15 nM	–	≥ 10000 nM	95.5%	–
C[C@@H](CO)CN1CCC(c2c(F)cc3c(c2F)CN(C2CCC(=O)NC2=O)C3=O)CC1 (mixture of isomers) [Compound 119, rac-3-(4,6-difluoro-5-(1-((R)-3-hydroxy-2-methylpropyl)piperidin-4-yl)-1-oxoisoindolin-2-yl)piperidine-2,6-dione]	8.65 nM	80.7%	≥ 10000 nM	–	–
O=C1CCC(N2Cc3cc(C4CCN(CC5CCCCC5)CC4)c(F)cc3C2=O)C(=O)N1 (centres unmarked) [Compound 82, 3-(5-(1-(cyclohexylmethyl)piperidin-4-yl)-6-fluoro-1-oxoisoindolin-2-yl)piperidine-2,6-dione]	1.72 nM	88.2%	≥ 10000 nM	–	–
O=C1CCC(N2Cc3c(cc(F)c(-c4ccc5c(n4)NCCC5)c3F)C2=O)C(=O)N1 (centres unmarked) [Compound 94, 3-(4,6-difluoro-1-oxo-5-(5,6,7,8-tetrahydro-1,8-naphthyridin-2-yl)isoindolin-2-yl) piperidine-2,6-dione]	655 nM	60.9%	≥ 10000 nM	–	–
O=C1CCC(N2Cc3c(cc(F)c(C4(O)CCN(Cc5cc(F)c(C(F)(F)F)cc5F)CC4)c3F)C2=O)C(=O)N1 (centres unmarked) [Compound 21, 3-(5-(1-(2,5-difluoro-4-(trifluoromethyl)benzyl)-4-hydroxypiperidin-4-yl)-4,6-difluoro-1-oxoisoindolin-2-yl)piperidine-2,6-dione]	40.2 nM	70.7%	–	–	–
Cc1cc(Br)cnc1CN1CCC(O)(c2c(F)cc3c(c2F)CN(C2CCC(=O)NC2=O)C3=O)CC1 (centres unmarked) [Compound 13, 3-(5-(1-((5-bromo-3-methylpyridin-2-yl)methyl)-4-hydroxypiperidin-4-yl)-4,6-difluoro-1-oxoisoindolin-2-yl)piperidine-2,6-dione]	86 nM	62.4%	≥ 10000 nM	–	–
Cc1nc(C)c(S(=O)(=O)N(C)CCN2CCC(O)(c3c(F)cc4c(c3F)CN(C3CCC(=O)NC3=O)C4=O)CC2)s1 (centres unmarked) [Compound 39, N-[2-[4-[2-(2,6-dioxo-3-piperidyl)-4,6-difluoro-1-oxo-isoindolin-5-yl]-4-hydroxy-1-piperidyl]ethyl]-N,2,4-trimethyl-thiazole-5-sulfonamide]	–	–	≥ 10000 nM	58.9%	93.8 nM
O=C1CCC(N2Cc3c(cc(F)c(C4(O)CCN(Cc5ncccc5Br)CC4)c3F)C2=O)C(=O)N1 (centres unmarked) [Compound 24, 3-(5-(1-((3-bromopyridin-2-yl)methyl)-4-hydroxypiperidin-4-yl)-4,6-difluoro-1-oxoisoindolin-2-yl)piperidine-2,6-dione]	101 nM	57.3%	–	–	–
O=C1CCC(N2Cc3c(cc(F)c(C4(O)CCN(Cc5ccc(C(F)(F)F)cc5F)CC4)c3F)C2=O)C(=O)N1 (centres unmarked) [Compound 20, 3-(4,6-difluoro-5-(1-(2-fluoro-4-(trifluoromethyl)benzyl)-4-hydroxypiperidin-4-yl)-1-oxoisoindolin-2-yl)piperidine-2,6-dione]	33.3 nM	77.1%	–	–	–
CN(CCN1CCC(O)(c2c(F)cc3c(c2F)CN(C2CCC(=O)NC2=O)C3=O)CC1)Cc1ccccc1 (centres unmarked) [Compound 30, 3-(5-(1-(2-(benzyl(methyl)amino)ethyl)-4-hydroxypiperidin-4-yl)-4,6-difluoro-1-oxoisoindolin-2-yl)piperidine-2,6-dione]	192 nM	57.8%	–	–	–
Cc1ccc(CN2CCC(O)(c3c(F)cc4c(c3F)CN(C3CCC(=O)NC3=O)C4=O)CC2)cc1 (centres unmarked) [Compound 27, 3-(4,6-difluoro-5-(4-hydroxy-1-(4-methylbenzyl)piperidin-4-yl)-1-oxoisoindolin-2-yl)piperidine-2,6-dione]	17.2 nM	76.2%	–	–	–
COc1ccc(-n2cccn2)c(CN2CCC(O)(c3c(F)cc4c(c3F)CN(C3CCC(=O)NC3=O)C4=O)CC2)c1 (centres unmarked) [Compound 23, 3-(4,6-difluoro-5-(4-hydroxy-1-(5-methoxy-2-(1H-pyrazol-1-yl)benzyl)piperidin-4-yl)-1-oxoisoindolin-2-yl)piperidine-2,6-dione]	279 nM	51.6%	–	–	–
COc1ccnc(CN2CCC(O)(c3c(F)cc4c(c3F)CN(C3CCC(=O)NC3=O)C4=O)CC2)c1 (centres unmarked) [Compound 25, 3-(4,6-difluoro-5-(4-hydroxy-1-((4-methoxypyridin-2-yl)methyl)piperidin-4-yl)-1-oxoisoindolin-2-yl)piperidine-2,6-dione]	48.2 nM	67.4%	–	–	–

The next lines start with results.

DC50 [1, 2]	Dmax [1, 3]	DC50 (Helios)	SMILES	Dmax [1, 4]	DC50 ([1]; read-out: Q1F Jurkat IC50; Jurkat cells expressing CD19 CAR tagged with IKZF1 ZNF2_ZNF3 Q1F; 18 hours at 37° C.; CAR levels normalized to untreated cells)
2.28 nM	91.5%	≥ 10000 nM	CS(=O)(=O)Nc1cccc(CN2CCC(c3c(F)cc4c(c3F)CN(C3CCC(=O)NC3=O)C4=O)CC2)c1 (centres unmarked) [Compound 109, N-(3-((4-(2-(2,6-dioxopiperidin-3-yl)-4,6-difluoro-1-oxoisoindolin-5-yl)piperidin-1-yl)methyl)phenyl) methanesulfonamide]	–	–
0.01 nM	92.2%	≥ 10000 nM	O=C1CCC(N2Cc3c(cc(F)c(C4CCN(Cc5ccc6c(c5)OC(F)(F)O6)CC4)c3F)C2=O)C(=O)N1 (centres unmarked) [Compound 59, 3-(5-(1-((2,2-difluorobenzo[d][1,3]dioxol-5-yl)methyl)piperidin-4-yl)-4,6-difluoro-1-oxoisoindolin-2-yl)piperidine-2,6-dione]	–	–
4.17 nM	89.7%	≥ 10000 nM	O=C1CCC(N2Cc3c(cc(F)c(C4CCN(Cc5ccc(Cl)cc5)CC4)c3F)C2=O)C(=O)N1 (centres unmarked) [Compound 96, 3-(5-(1-(4-chlorobenzyl)piperidin-4-yl)-4,6-difluoro-1-oxoisoindolin-2-yl)piperidine-2,6-dione]	–	–
21.3 nM	74.5%	≥ 10000 nM	O=C1CCC(N2Cc3c(cc(F)c(C4CCN(CCO)CC4)c3F)C2=O)C(=O)N1 (centres unmarked) [Compound 123, 3-(4,6-difluoro-5-(1-(2-hydroxyethyl)piperidin-4-yl)-1-oxoisoindolin-2-yl)piperidine-2,6-dione]	–	–
0.698 nM	91.8%	≥ 10000 nM	Cn1cnc2ccc(CN3CCC(c4c(F)cc5c(c4F)CN(C4CCC(=O)NC4=O)C5=O)CC3)cc21 (centres unmarked) [Compound 106, 3-(4,6-difluoro-5-(1-((1-methyl-1H-benzo[d]imidazol-6-yl)methyl)piperidin-4-yl)-1-oxoisoindolin-2-yl)piperidine-2,6-dione]	–	–
0.691 nM	91.8%	≥ 10000 nM	O=C1CCC(N2Cc3c(cc(F)c(C4CCN(Cc5ccc6c(c5)CCC6)CC4)c3F)C2=O)C(=O)N1 (centres unmarked) [Compound 60, 3-(5-(1-((2,3-dihydro-1H-inden-5-yl)methyl)piperidin-4-yl)-4,6-difluoro-1-oxoisoindolin-2-yl)piperidine-2,6-dione]	–	–
0.571 nM	84.4%	≥ 10000 nM	Cc1nc(CN2CCC(c3c(F)cc4c(c3F)CN(C3CCC(=O)NC3=O)C4=O)CC2)c(C)o1 (centres unmarked) [Compound 56, 3-(5-(1-((2,5-dimethyloxazol-4-yl)methyl)piperidin-4-yl)-4,6-difluoro-1-oxoisoindolin-2-yl)piperidine-2,6-dione]	–	–

Reference: patent US20240327381A1, “Compounds and Compositions for Selective Degradation of Engineered Proteins” (Celgene Corporation, priority 2023, published 2024)
